Experimental data published in the NIST ThermoML archive (doi:10.1021/je2006049).
Several values for one entry are separate records, joined by “and”; a condition that tells them apart may be missing. Equal values may be shown once. Numbers after ± are expanded uncertainties.

Conditions: Liquid; for electrical conductivity / mass density: 101.33 kPa; for electrical conductivity: Alternating current cell with electrodes; for mass density: Vibrating tube method

CCCC[N+]1(C)CCCC1.O=S(=O)([N-]S(=O)(=O)C(F)(F)F)C(F)(F)F
Conditions | viscosity
298.15 K, 50630 kPa, Falling or rolling sphere viscometry | 148.26 ± 7.8 mPa·s
298.15 K, 60600 kPa, Falling or rolling sphere viscometry | 167.95 ± 9.2 mPa·s
298.15 K, 70390 kPa, Falling or rolling sphere viscometry | 189.46 ± 11 mPa·s
298.15 K, 80180 kPa, Falling or rolling sphere viscometry | 213.75 ± 13 mPa·s
298.15 K, 90600 kPa, Falling or rolling sphere viscometry | 242.18 ± 15 mPa·s
298.15 K, 100230 kPa, Falling or rolling sphere viscometry | 271.62 ± 19 mPa·s
303.15 K, 100 kPa, Falling or rolling sphere viscometry | 62.82 ± 2.6 mPa·s and 62.63 ± 2.6 mPa·s
303.15 K, 101.3 kPa, Concentric cylinders viscometry | 62.26 ± 2.5 mPa·s
313.15 K, 100 kPa, Falling or rolling sphere viscometry | 41.27 ± 1.7 mPa·s and 41.24 ± 1.7 mPa·s
313.15 K, 101.3 kPa, Concentric cylinders viscometry | 41.72 ± 1.7 mPa·s
323.15 K, 100 kPa, Falling or rolling sphere viscometry | 29.04 ± 1.2 mPa·s [middle of 5 runs]
323.15 K, 101.3 kPa, Concentric cylinders viscometry | 29.42 ± 1.2 mPa·s
323.15 K, 10520 kPa, Falling or rolling sphere viscometry | 32.31 ± 1.3 mPa·s
323.15 K, 20600 kPa, Falling or rolling sphere viscometry | 36.21 ± 1.5 mPa·s
323.15 K, 29970 kPa, Falling or rolling sphere viscometry | 40.16 ± 1.6 mPa·s
323.15 K, 39910 kPa, Falling or rolling sphere viscometry | 44.72 ± 1.8 mPa·s
323.15 K, 50590 kPa, Falling or rolling sphere viscometry | 50.06 ± 2 mPa·s
323.15 K, 60550 kPa, Falling or rolling sphere viscometry | 55.73 ± 2.3 mPa·s
323.15 K, 70490 kPa, Falling or rolling sphere viscometry | 61.77 ± 2.6 mPa·s
323.15 K, 80450 kPa, Falling or rolling sphere viscometry | 68.24 ± 2.9 mPa·s
323.15 K, 90470 kPa, Falling or rolling sphere viscometry | 75.36 ± 3.2 mPa·s
323.15 K, 100400 kPa, Falling or rolling sphere viscometry | 82.99 ± 4.3 mPa·s
333.15 K, 100 kPa, Falling or rolling sphere viscometry | 21.31 ± 0.89 mPa·s and 21.3 ± 0.89 mPa·s
333.15 K, 101.3 kPa, Concentric cylinders viscometry | 21.64 ± 0.87 mPa·s
343.15 K, 100 kPa, Falling or rolling sphere viscometry | 16.14 ± 0.66 mPa·s and 16.13 ± 0.66 mPa·s
343.15 K, 101.3 kPa, Concentric cylinders viscometry | 16.46 ± 0.67 mPa·s
348.15 K, 100 kPa, Falling or rolling sphere viscometry | 14.07 ± 0.58 mPa·s and 14.06 ± 0.58 mPa·s
348.15 K, 10850 kPa, Falling or rolling sphere viscometry | 15.68 ± 0.64 mPa·s
348.15 K, 11990 kPa, Falling or rolling sphere viscometry | 15.82 ± 0.65 mPa·s
348.15 K, 21760 kPa, Falling or rolling sphere viscometry | 17.54 ± 0.72 mPa·s
348.15 K, 29210 kPa, Falling or rolling sphere viscometry | 18.8 ± 0.77 mPa·s
348.15 K, 38020 kPa, Falling or rolling sphere viscometry | 20.38 ± 0.84 mPa·s
348.15 K, 49600 kPa, Falling or rolling sphere viscometry | 22.9 ± 0.94 mPa·s
348.15 K, 64630 kPa, Falling or rolling sphere viscometry | 26.45 ± 1.1 mPa·s
348.15 K, 73060 kPa, Falling or rolling sphere viscometry | 28.44 ± 1.2 mPa·s
348.15 K, 85040 kPa, Falling or rolling sphere viscometry | 31.53 ± 1.3 mPa·s
348.15 K, 102920 kPa, Falling or rolling sphere viscometry | 36.8 ± 1.5 mPa·s
353.15 K, 100 kPa, Falling or rolling sphere viscometry | 12.73 ± 0.53 mPa·s and 12.67 ± 0.52 mPa·s
353.15 K, 101.3 kPa, Concentric cylinders viscometry | 12.91 ± 0.52 mPa·s
363.15 K, 101.3 kPa, Concentric cylinders viscometry | 10.35 ± 0.42 mPa·s

Conditions | electrical conductivity [S/m] | mass density
303.15 K | 0.338 ± 0.013 | 1390.1 ± 0.57 kg/m3 and 1390.17 ± 0.3 kg/m3 and 1390 ± 3.8 kg/m3
313.15 K | 0.486 ± 0.019 | 1381.31 ± 0.56 kg/m3 and 1381.38 ± 0.3 kg/m3 and 1381.2 ± 3.7 kg/m3
323.14 K | 0.667 ± 0.027 | –
323.15 K | – | 1372.58 ± 0.55 kg/m3 and 1372.67 ± 0.3 kg/m3 and 1372.5 ± 3.7 kg/m3
333.15 K | 0.879 ± 0.035 | 1363.89 ± 0.54 kg/m3 and 1363.97 ± 0.29 kg/m3 and 1363.9 ± 3.6 kg/m3
343.14 K | 1.12 ± 0.045 | –
343.15 K | – | 1355.26 ± 0.54 kg/m3 and 1355.36 ± 0.29 kg/m3 and 1355.3 ± 3.6 kg/m3
353.15 K | 1.39 ± 0.056 | 1346.69 ± 0.53 kg/m3 and 1346.78 ± 0.29 kg/m3 and 1346.8 ± 3.5 kg/m3
363.15 K | – | 1338.16 ± 0.52 kg/m3 and 1338.25 ± 0.29 kg/m3 and 1338.4 ± 3.5 kg/m3
